Measured values from US20220370553A1, “PREBIOTIC-INDUCED ANTI-TUMOR IMMUNITY” (Sanford Burnham Prebys Medical Discovery Institute, priority 2019, published 2022).

Tested on: SW1 tumor cells
Test: SW1 tumor growth in germ free mice colonized with minimal microbiota (ASF)
Type: in vivo, C3H/HeN mice
Settings: two weeks of mucin, 24 days
Text: Tumor size was monitored over the next 24 days (n=15).
Animals and tumor models. All experimental animal procedures were approved by the Institutional Animal Care and Use Committee of Sanford Burnham Prebys Medical Discovery Institute (SBP) and complied with all relevant ethical regulations for animal testing and research. C57BL/6 mice were obtained from Sanford Burnham Prebys Medical Discovery Institute. OT-I mice were bred at SBP to CD45.1 mice (B6.SJLB6.SJL-Ptprc^a Pepc^b/BoyJ) that were obtained from Jackson Laboratories. C3H/HeOuJ mice were purchased from Jackson laboratories. Male 6-8-week-old mice were used for all experiments. […] Briefly, fresh feces were collected and analyzed by bacterial 16S rRNA gene-specific PCR (30 cycles, universal bacteria primers 8F and 1391R) in combination with aerobic and anaerobic culture of feces in Brain Heart Infusion, Wilkins-Chalgren and Yeast Mold broths, and on Tryptic Soy Agar plates (all media from Difco™ Becton Dickinson) at 37° C. for 7 days. […] Briefly, genomic DNA was extracted from fecal samples and ASF bacteria were quantified by qPCR with species-specific primers. […] Tumor size was measured twice a week for calculation of tumor volume. […]
In order to test the requirement for gut microbiota in prebiotic-induced tumor control, experiments were conducted using mice with a defined, minimal microbiota. […] Tumor size was monitored over the next 24 days.

mucin
SW1 tumor growth: failed to attenuate tumor growth
